Read-outs that look alike come from different tables or passages of the source.
Key:
[1] = molecular target: GDP-bound KRAS wild-type protein (Homo sapiens, UniProt P01116); assay: Binding to KRAS by surface plasmon resonance (SPR), dissociation constant KD
In short: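 Each cycle, GDP-bound biotin-Avi RAS was captured (~100–300 RU), compound concentrations were injected low to high for 75 s each at 100 µL/min, then the chip was regenerated. Buffer: HBS pH 7.4, 10 mM MgCl2, 10 µM GDP, 1 mM DTT, 4% DMSO; 30°C. KD from a 1:1 binding model.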

HRAS wild-type protein = HRAS wild-type protein (Homo sapiens, UniProt P01112); assay: Binding to HRAS by surface plasmon resonance (SPR), KD and KD ratio to KRAS
Sequence of HRAS wild-type protein (P01112 whole entry): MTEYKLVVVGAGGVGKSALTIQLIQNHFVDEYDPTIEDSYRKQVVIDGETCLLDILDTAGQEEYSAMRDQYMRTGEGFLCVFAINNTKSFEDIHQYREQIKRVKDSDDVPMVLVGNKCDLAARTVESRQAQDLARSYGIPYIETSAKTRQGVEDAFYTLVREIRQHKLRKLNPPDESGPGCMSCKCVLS
In short: (§1)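 Compound binding is evaluated by SPR single-cycle kinetics, with concentrations added intermittently from low to high for 75 s each. Target surfaces carry GDP-loaded biotinylated Avi-RAS at about 100–300 RU, regenerated after each cycle; temperature 30°C. A 1:1 binding model gives KD.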

[2] = molecular target: GDP-bound NRAS wild-type protein (Homo sapiens, UniProt P01111); assay: Binding to NRAS by surface plasmon resonance (SPR), KD and KD ratio to KRAS
Sequence of GDP-bound NRAS wild-type protein (P01111 whole entry): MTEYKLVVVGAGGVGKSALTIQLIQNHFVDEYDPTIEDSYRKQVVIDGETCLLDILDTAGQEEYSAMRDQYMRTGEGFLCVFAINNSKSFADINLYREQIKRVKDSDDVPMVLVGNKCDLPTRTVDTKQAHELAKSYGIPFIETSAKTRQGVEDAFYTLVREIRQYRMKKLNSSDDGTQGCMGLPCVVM
In short: as §1

[3] = tested on: human lung cancer strain NCI-H441; assay: NCI-H441 cell proliferation inhibitory activity (CellTiter-Glo, 4 days); format: cell-based; conditions: read-out: NCl-H441 IC50
In short: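 Proliferation was scored by […] measured after the reagent was added to cultures kept at 37°C in 5% carbon dioxide.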

[4] = ratio of KD for HRAS wild-type protein to KD for KRAS
[5] = ratio of KD for GDP-bound NRAS wild-type protein to KD for KRAS
[6] = Single Cycle Kinetics, 1:1 binding model
[7] = ratio of KD with respect to HRAS wild-type protein to KD with respect to KRAS
[8] = ratio of KD with respect to GDP-bound NRAS wild-type protein to KD with respect to KRAS
[9] = 50% proliferation inhibitory concentration, four days

Sequence of GDP-bound KRAS wild-type protein (P01116 1-188 isoform P01116-2): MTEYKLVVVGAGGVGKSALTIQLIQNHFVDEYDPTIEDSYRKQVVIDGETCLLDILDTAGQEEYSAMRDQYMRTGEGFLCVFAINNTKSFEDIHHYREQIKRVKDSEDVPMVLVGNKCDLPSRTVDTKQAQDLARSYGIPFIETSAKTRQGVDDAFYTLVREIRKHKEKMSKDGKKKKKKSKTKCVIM

Structure (SMILES) | Kd ([1]; Single Cycle Kinetics) | IC50 ([3]; NCI-H441 cells, 4 days) | Kd ([1]; 1:1 binding model) | Kd [1, 6] | IC50 [3, 9] | HRAS /KRAS (HRAS wild-type protein; [4]) | NRAS /KRAS [2, 5] | HRAS /KRAS (HRAS wild-type protein; [7]) | NRAS /KRAS [2, 8]
CCC[C@H]1C(=O)N[C@@H]([C@@H](C)CC)C(=O)N(C)CC(=O)N(C)[C@H]2C/C=C\CCN(C2=O)[C@@H](CC2CCC(F)(F)CC2)C(=O)N(C)CC(=O)N[C@@H](CCc2ccc(C(F)(F)F)c(OC)c2)C(=O)N2C[C@@H](C)C[C@H]2C(=O)NC2(CC(C)(C)C2)C(=O)N(C)[C@@H](C(CC)CC)C(=O)N(C)[C@H](C(=O)N(C)C)CC(=O)N1C [PP2497] | – | 84.8 nM | 1.5 nM | – | – | A (a compound having 10 or more and less than 20 is denoted as A) | A (a compound having 10 or more and less than 20 is denoted as A) | – | –
CCO[C@@H]1C[C@H]2C(=O)NC3(CCC3)C(=O)N(C)[C@@H](C3CCCC3)C(=O)N(C)[C@H](C(=O)N3CCOCC3)CC(=O)N(C)[C@@H](Cc3ccsc3)C(=O)N[C@@H]([C@@H](C)CC)C(=O)N(C)CC(=O)N(C)[C@H]3CCCCCN(C3=O)[C@@H](Cc3ccc(F)cc3)C(=O)N(C)CC(=O)N[C@@H](CCc3cc(F)c(C(F)(F)F)c(F)c3)C(=O)N2C1 [PP1184] | – | – | – | 0.16 nM | 91.9 nM | – | – | B (a compound having 3 or more and less than 10 is denoted as B) | B (a compound having 3 or more and less than 10 is denoted as B)
CC[C@H](C)[C@@H]1NC(=O)[C@H](CC(C)C)N(C)C(=O)C[C@@H](C(=O)N(C)C)N(C)C(=O)[C@H](C2CCCC2)N(C)C(=O)C2(CCCC2)NC(=O)[C@@H]2CCN2C(=O)[C@H](CCc2cc(F)c(C(F)(F)F)c(F)c2)NC(=O)CN(C)C(=O)[C@H](Cc2ccc(C(F)(F)F)cc2)N2CC/C=C(/F)C[C@@H](C2=O)N(C)C(=O)CN(C)C1=O [PP3521] | 2.3 nM | 36.6 nM | – | – | – | B (a compound having 3 or more and less than 10 is denoted as B) | B (a compound having 3 or more and less than 10 is denoted as B) | – | –
CCC[C@H]1C(=O)N[C@@H]([C@@H](C)CC)C(=O)N(C2CC2)CC(=O)N(C)[C@H]2C/C(F)=C\CCN(C2=O)[C@@H](Cc2ccc(C)cc2)C(=O)N(C)CC(=O)N[C@@H](CCc2cc(F)c(C(F)(F)F)c(F)c2)C(=O)N2C[C@H](OCC)C[C@H]2C(=O)NC2(CCC2)C(=O)N(C)[C@@H](C2CCCC2)C(=O)N(C)[C@H](C(=O)N(C)C)CC(=O)N1C [PP3519] | 0.87 nM | 22.3 nM | – | – | – | B (a compound having 3 or more and less than 10 is denoted as B) | B (a compound having 3 or more and less than 10 is denoted as B) | – | –
CCO[C@@H]1C[C@H]2C(=O)NC3(CCC3)C(=O)N(C)[C@@H](C3CCCC3)C(=O)N(C)[C@H](C(=O)N(C)C)CC(=O)N(C)[C@@H](CC3CCCC3)C(=O)N[C@@H]([C@@H](C)CC)C(=O)N(C)CC(=O)N(C)[C@H]3C/C=C\CCN(C3=O)[C@@H](Cc3ccc(F)cc3)C(=O)N(C)CC(=O)N[C@@H](CCc3ccc4sccc4c3)C(=O)N2C1 [PP1390] | – | – | – | 1.1 nM | 305 nM | – | – | A (a compound having 10 or more and less than 20 is denoted as A) | A (a compound having 10 or more and less than 20 is denoted as A)

Now from value to compound, other results behind:

Kd ([1]; Single Cycle Kinetics) | IC50 ([3]; NCI-H441 cells, 4 days) | Kd ([1]; 1:1 binding model) | Kd [1, 6] | IC50 [3, 9] | Structure (SMILES) | HRAS /KRAS (HRAS wild-type protein; [4]) | NRAS /KRAS [2, 5] | HRAS /KRAS (HRAS wild-type protein; [7]) | NRAS /KRAS [2, 8]
0.61 nM | 12.2 nM | – | – | – | CCCO[C@@H]1C[C@H]2C(=O)NC3(CC(C)(C)C3)C(=O)N(C)[C@@H](C3CCCC3)C(=O)N(C)[C@H](C(=O)N(C)CC)CC(=O)N(C)[C@@H](COCC)C(=O)N[C@@H]([C@@H](C)CC)C(=O)N(C3CC3)CC(=O)N(C)[C@H]3C/C=C\CCN(C3=O)[C@@H](Cc3ccc(C(F)(F)F)cc3)C(=O)N(C)CC(=O)N[C@@H](CCc3cc(F)c(C(F)(F)F)c(F)c3)C(=O)N2C1 [PP3470] | A (a compound having 10 or more and less than 20 is denoted as A) | A (a compound having 10 or more and less than 20 is denoted as A) | – | –
0.021 nM | 1.9 nM | – | – | – | CCC[C@H]1C(=O)N[C@@H]([C@@H](C)CC)C(=O)N(C)CC(=O)N(C)[C@H]2C/C=C\CCN(C2=O)[C@@H](Cc2ccc(C)cc2)C(=O)N(C)CC(=O)N[C@@H](CCc2ccc(C(F)(F)F)c(OC)c2)C(=O)N2CC3(CC3)C[C@H]2C(=O)N(C)C2(CCC2)C(=O)N(C)[C@@H](C2CCCC2)C(=O)N(C)[C@H](C(=O)N(C)C)CC(=O)N1C [PP3290] | B (a compound having 3 or more and less than 10 is denoted as B) | A (a compound having 10 or more and less than 20 is denoted as A) | – | –
0.2 nM | 21.3 nM | – | – | – | CCCC[C@@H]1NC(=O)C[C@@H](C(=O)N(C)C)N(C)C(=O)[C@H](C2CCCC2)N(C)C(=O)C2(CC(C)(C)C2)NC(=O)[C@@H]2C[C@@H](OCC)CN2C(=O)[C@H](CCc2ccc(C(F)(F)F)c(OC)c2)NC(=O)CN(C)C(=O)[C@H](Cc2ccc(C(F)(F)F)cc2)N2CC/C=C\C[C@@H](C2=O)N(C)C(=O)CN(C)C(=O)[C@H]([C@@H](C)CC)NC1=O [PP3446] | A (a compound having 10 or more and less than 20 is denoted as A) | A (a compound having 10 or more and less than 20 is denoted as A) | – | –
0.11 nM | 3.1 nM | – | – | – | CCC[C@H]1C(=O)N[C@@H]([C@@H](C)CC)C(=O)N(C)CC(=O)N(C)[C@H]2C/C=C\CCN(C2=O)[C@@H](Cc2ccc(C(F)(F)F)cc2)C(=O)N(C)CC(=O)N[C@@H](CCc2cc(F)c(C(F)(F)F)c(F)c2)C(=O)N2CC3(CC3)C[C@H]2C(=O)N(C)C2(CCC2)C(=O)N(C)[C@@H]([C@@H](C)CC)C(=O)N(C)[C@H](C(=O)N(C)C)CC(=O)N1C [PP3358] | A (a compound having 10 or more and less than 20 is denoted as A) | A (a compound having 10 or more and less than 20 is denoted as A) | – | –
0.03 nM | 2.6 nM | – | – | – | C#CC[C@H]1C(=O)N[C@@H]([C@@H](C)CC)C(=O)N(C)CC(=O)N(C)[C@H]2C/C=C\CCN(C2=O)[C@@H](Cc2ccc(C(F)(F)F)cc2)C(=O)N(C)CC(=O)N[C@@H](CCc2ccc(C(F)(F)F)c(OC)c2)C(=O)N2C[C@H](OCC)C[C@H]2C(=O)N(C)C2(CCC2)C(=O)N(C)[C@@H](C2CCCC2)C(=O)N(C)[C@H](C(=O)N(C)C)CC(=O)N1C [PP3230] | A (a compound having 10 or more and less than 20 is denoted as A) | A (a compound having 10 or more and less than 20 is denoted as A) | – | –
0.19 nM | 13.6 nM | – | – | – | CCC[C@H]1C(=O)N[C@@H](C2CCCC2)C(=O)N(C)CC(=O)N(C)[C@H]2C/C=C\CCN(C2=O)[C@@H](Cc2ccc(C)cc2)C(=O)N(C)CC(=O)N[C@@H](CCc2ccc(C(F)(F)F)c(Cl)c2)C(=O)N2CC3(CC3)C[C@H]2C(=O)NC2(CCC2)C(=O)N(C)[C@@H](C2CCCC2)C(=O)N(C)[C@H](C(=O)N(C)C)CC(=O)N1C [PP3444] | A (a compound having 10 or more and less than 20 is denoted as A) | AA (a compound having 20 or more is denoted as AA) | – | –
0.56 nM | 11.1 nM | – | – | – | CCC[C@H]1C(=O)N[C@@H]([C@@H](C)CC)C(=O)N(C2CC2)CC(=O)N(C)[C@H]2C/C=C\CCN(C2=O)[C@@H](Cc2ccc(C)cc2)C(=O)N(C)CC(=O)N[C@@H](CCc2ccc(C(F)(F)F)c(OC)c2)C(=O)N2C[C@H](OCC)C[C@H]2C(=O)OC2(CCC2)C(=O)N(C)[C@@H](C2CCCC2)C(=O)N(C)[C@H](C(=O)N(C)C)CC(=O)N1C [PP3387] | B (a compound having 3 or more and less than 10 is denoted as B) | A (a compound having 10 or more and less than 20 is denoted as A) | – | –

From patent EP4603105A1, “PHARMACEUTICAL COMPOSITION CONTAINING CYCLIC COMPOUND HAVING SELECTIVE KRAS INHIBITORY EFFECT AGAINST HRAS AND NRAS” (CHUGAI SEIYAKU KABUSHIKI KAISHA, priority 2022, dated 2024)
